Where two headings read alike, the source gives them in different places.
System: HIV-1
Experiment: HIV-1 single-round infectious luciferase reporter virus (pseudotype) assay in HeLa CD4 CCR5 cells
Format: cell-based
Description: • Virus production—Human embryonic Kidney cell line, 293, propagated in Dulbecco's Modified Eagle Medium (Life Technologies, Gaithersburg, Md.) containing 10% fetal Bovine serum (FBS, Sigma, St. Louis, Mo.). • Virus infection—Human epithelial cell line, HeLa, expressing the HIV-1 receptors CD4 and CCR^5 was propagated in Dulbecco's Modified Eagle Medium (Life Technologies, Gaithersburg, Md.) containing 10% fetal Bovine serum (FBS, Sigma, St. Louis, Mo.) and supplemented with 0.2 mg/mL Geneticin (Life Technologies, Gaithersburg, Md.) and 0.4 mg/mL Zeocin (Invitrogen, Carlsbad, Calif.). […] Transfections were performed using lipofectAMINE PLUS reagent as described by the manufacturer (Life Technologies, Gaithersburg, Md.). Experiment • 1. Compound was added to HeLa CD4 CCR5 cells plated in 96 well plates at a cell density of 5×10^4 cells per well in 100 μl Dulbecco's Modified Eagle Medium containing 10% fetal Bovine serum at a concentration of […]. • 2. 100 μl of single-round infectious reporter virus in Dulbecco's Modified Eagle Medium was then added to the plated cells and compound at an approximate multiplicity of infection (MOI) of 0.01, resulting in a final volume of 200 μl per well and a final compound concentration of <10 μM. • 3. Samples were harvested 72 h after infection. • 4. Viral infection was monitored by measuring luciferase expression from viral DNA in the infected cells using a luciferase reporter gene assay kit (Roche Molecular Biochemicals, Indianapolis, Ind.). Infected cell supernatants were removed and 50 μl of Dulbecco's Modified Eagle Medium (without phenol red) and 50 μl of luciferase assay reagent reconstituted as described by the manufacturer (Roche Molecular Biochemicals, Indianapolis, Ind.) was added per well. Luciferase activity was then quantified by measuring luminescence using a Wallac microbeta scintillation counter. • 5. […] An EC50 provides a method for comparing the antiviral potency of the compounds of this invention. The effective concentration for fifty percent inhibition (EC50) was calculated with the Microsoft Excel Xlfit curve fitting software. For each compound, curves were generated from percent inhibition calculated at 10 different concentrations by using a four paramenter logistic model (model 205). Table 1 is the key for the data in Tables 2-4. Cytoxicity assays were conducted with the same HeLa using methodology well known in the art.
In Table 5, X2, X4 etc. indicates the point of attachment. […] The data at 10 μM was calculated in the following manner:
For compounds tested at concentrations less than 10 μM, the percent inhibition at 10 μM was determined by extrapolation using the XLfit curve fitting feature of the Microsoft Excel spreadsheet software. Curves were obtained from 10 data points (% inhibition determined at 10 concentrations of compound) by using a four parameter logistic model (XLfit model 205: y=A+((B−A)/(I+((C/x)^D))), where, A=minimum y, B=maximum y, C=logEC50, D=slope factor, and x and y are known data values. Extrapolations were performed with the A and B parameters unlocked. […]

[1] = Human immunodeficiency virus 1, HeLa-CD4/CCR5, read-out: EC50 Group from TABLE 1, HeLa CD4 CCR5 cells, single-round infectious luciferase reporter virus
[2] = Human immunodeficiency virus 1, HeLa-CD4/CCR5, read-out: EC50 Group from Table 1, Table 4, HeLa CD4 CCR5 cells, single-round luciferase reporter virus

| Structure (SMILES) | EC50 [1] | other results |
| --- | --- | --- |
| COc1cnc(-c2cnc(C(=O)NC(C)(C)C)cn2)c2[nH]cc(C(=O)C(=O)N3CCN(C(=O)c4ccccc4)CC3)c12 [Example 15, 1-benzoyl-4-[(4-methoxy-7-(2-(1,1-dimethylethylaminocarbonyl)-pyrazin-5-yl)-6-azaindol-3-yl)-oxoacetyl]piperazine] | < 1000 nM | – |
| C[C@@H]1CN(C(=O)c2ccccc2)CCN1C(=O)C(=O)c1c[nH]c2c(-c3cncnc3)nccc12 [Example 16, 1-benzoyl-3-(R)-methyl-4-[(7-(pyrimidin-5-yl)-6-azaindol-3-yl)-oxoacetyl]piperazine] | < 1000 nM | – |
| O=C(C(=O)N1CCN(C(=O)c2ccccc2)CC1)c1c[nH]c2c(-c3cncnc3)nccc12 [Example 17, 1-benzoyl-4-[(7-(pyrimidin-5-yl)-6-azaindol-3-yl)-oxoacetyl]piperazine] | < 1000 nM | – |
| C[C@@H]1CN(C(=O)c2ccccc2)CCN1C(=O)C(=O)c1c[nH]c2c(-c3cccnc3)nccc12 [Example 18, 1-benzoyl-3-(R)-methyl-4-[(7-(pyridin-3-yl)-6-azaindol-3-yl)-oxoacetyl]piperazine] | < 1000 nM | – |
| O=C(C(=O)N1CCN(C(=O)c2ccccc2)CC1)c1c[nH]c2c(-c3ccccn3)nccc12 [Example 19, 1-benzoyl-4-[(7-(pyridin-2-yl)-6-azaindol-3-yl)-oxoacetyl]piperazine] | < 1000 nM | – |
| C[C@@H]1CN(C(=O)c2ccccc2)CCN1C(=O)C(=O)c1c[nH]c2c(-c3nccs3)nccc12 [Example 20, 1-benzoyl-3-(R)-methyl-4-[(7-(thiazol-2-yl)-6-azaindol-3-yl)oxoacetyl]piperazine] | < 1000 nM | – |
| O=C(C(=O)N1CCN(C(=O)c2ccccc2)CC1)c1c[nH]c2c(-c3nccs3)nccc12 [Example 21, 1-benzoyl-4-[(7-(thiazol-2-yl)-6-azaindol-3-yl)-oxoacetyl]piperazine] | < 1000 nM | – |
| COc1cnc(-c2ccnnc2)c2[nH]cc(C(=O)C(=O)N3CCN(C(=O)c4ccccc4)CC3)c12 [Example 23, l-benzoyl-4-[(4-methoxy-7-(pyridazin-4-yl)-6-azaindol-3-yl)-oxoacetyl]piperazine] | < 1000 nM | – |
| COc1cnc(-c2cnc(N)nc2)c2[nH]cc(C(=O)C(=O)N3CCN(C(=O)c4ccccc4)CC3)c12 [Example 24] | < 1000 nM | – |
| COc1cnc(-c2cccnc2)c2[nH]cc(C(=O)C(=O)N3CCN(C(=O)c4ccccc4)CC3)c12 [Example 25, 1-benzoyl-4-[(4-methoxy-7-(pyridin-3-yl)-6-azaindol-3-yl)-oxoacetyl]piperazine] | < 1000 nM | – |
| COc1cnc(-c2cnc(N)cn2)c2[nH]cc(C(=O)C(=O)N3CCN(C(=O)c4ccccc4)CC3)c12 [Example 26] | < 1000 nM | – |
| COc1cnc(-c2nccn2C)c2[nH]cc(C(=O)C(=O)N3CCN(C(=O)c4ccccc4)CC3)c12 [Example 27, 1-benzoyl-4-[(4-methoxy-7-(1-methyl-imidazol-2-yl)-6-azaindol-3-yl)-oxoacetyl]piperazine] | < 1000 nM | – |
| O=C(C(=O)N1CCN(C(=O)c2ccccc2)CC1)c1c[nH]c2c(-c3ccnnc3)ncc(F)c12 [Example 30, 1-benzoyl-4-[(4-fluoro-7-(pyridazin-4-yl)-6-azaindol-3-yl)-oxoacetyl]piperazine] | < 1000 nM | – |
| COc1cnc(-c2cnccn2)c2[nH]cc(C(=O)C(=O)N3CCN(C(=O)c4ccccc4)CC3)c12 [Example 32, 1-benzoyl-4-[(4-methoxy-7-(pyrazin-2-yl)-6-azaindol-3-yl)-oxoacetyl]piperazine] | < 1000 nM | – |
| C[C@@H]1CN(C(=O)c2ccccc2)CCN1C(=O)C(=O)c1c[nH]c2c(-c3cnccn3)nccc12 [Example 33, 1-benzoyl-3-(R)-methyl-4-[(7-(pyrazin-2-yl)-6-azaindol-3-yl)-oxoacetyl]piperazine] | < 1000 nM | – |
| O=C(C(=O)N1CCN(C(=O)c2ccccc2)CC1)c1c[nH]c2c(-c3cnccn3)nccc12 [Example 34, 1-benzoyl-4-[(7-(pyrazin-2-yl)-6-azaindol-3-yl)-oxoacetyl]piperazine] | < 1000 nM | – |
| COc1cnc(-c2ccccn2)c2[nH]cc(C(=O)C(=O)N3CCN(C(=O)c4ccccc4)CC3)c12 [Example 36, 1-benzoyl-4-[(4-methoxy-7-(pyridin-2-yl)-6-azaindol-3-yl)-oxoacetyl]piperazine] | < 1000 nM | – |
| C[C@@H]1CN(C(=O)c2ccccc2)CCN1C(=O)C(=O)c1c[nH]c2c(-c3cncnc3)ncc(F)c12 [Example 41, 1-benzoyl-3-(R)-methyl-4-[(4-fluoro-7-(pyrimidin-5-yl)-6-azaindol-3-yl)-oxoacetyl]piperazine] | < 1000 nM | – |
| CCOc1ncc(-c2ncc(OC)c3c(C(=O)C(=O)N4CCN(C(=O)c5ccccc5)CC4)c[nH]c23)s1 [Example 45, 1-benzoyl-4-[(4-methoxy-7-(2-ethoxy-thiazol-5-yl)-6-azaindol-3-yl)-oxoacetyl]piperazine] | < 1000 nM | – |
| COc1cnc(-c2cncc(N)n2)c2[nH]cc(C(=O)C(=O)N3CCN(C(=O)c4ccccc4)CC3)c12 [Example 46, 1-benzoyl-4-[(4-methoxy-7-(2-amino-pyrazin-6-yl)-6-azaindol-3-yl)-oxoacetyl]piperazine] | < 1000 nM | – |
| COc1cnc(-c2cnc(NS(C)(=O)=O)cn2)c2[nH]cc(C(=O)C(=O)N3CCN(C(=O)c4ccccc4)CC3)c12 [Example 47] | < 1000 nM | – |
| COc1cnc(-c2ncccn2)c2[nH]cc(C(=O)C(=O)N3CCN(C(=O)c4ccccc4)CC3)c12 [Example 49, 1-benzoyl-4-[(4-methoxy-7-(pdin-2-yl)-6-azaindol-3-yl)-oxoacetyl]piperazine] | < 1000 nM | – |
| COc1cnc(-c2nccs2)c2[nH]cc(C(=O)C(=O)N3CCN(C(=O)c4ccccn4)CC3)c12 [Example 50] | < 1000 nM | – |
| C[C@@H]1CN(C(=O)c2ccccc2)CCN1C(=O)C(=O)c1c[nH]c2c(-c3cncnc3)ccnc12 [Example 51, 1-benzoyl-3-(R)-methyl-4-[(7-(pyrimidin-5-yl)-4-azaindol-3-yl)-oxoacetyl]piperazine] | – | EC50 [2]: < 1000 nM |
| C[C@@H]1CN(C(=O)c2ccccc2)CCN1C(=O)C(=O)c1c[nH]c2c(-c3cnccn3)ccnc12 [Example 52, 1-benzoyl-3-(R)-methyl-4-[(7-(pyrazin-2-yl)-4-azaindol-3-yl)-oxoacetyl]piperazine] | – | EC50 [2]: < 1000 nM |
| C[C@@H]1CN(C(=O)c2ccccc2)CCN1C(=O)C(=O)c1c[nH]c2c(-c3nccs3)ccnc12 [Example 53, 1-benzoyl-3-(R)-methyl-4-[(7-(thiazol-2-yl)-4-azaindol-3-yl)-oxoacetyl]piperazine] | – | EC50 [2]: < 1000 nM |
| CCOc1ncc(-c2ccnc3c(C(=O)C(=O)N4CCN(C(=O)c5ccccc5)C[C@H]4C)c[nH]c23)s1 [Example 54, 1-benzoyl-3-(R)-methyl-4-[(7-(2-ethoxy-thiazol-5-yl)-4-azaindol-3-yl)-oxoacetyl]piperazine] | – | EC50 [2]: < 1000 nM |
| COc1cnc(-c2cnc(C(N)=O)cn2)c2[nH]cc(C(=O)C(=O)N3CCN(C(=O)c4ccccc4)CC3)c12 [Example 55, 1-benzoyl-4-[(4-methoxy-7-(2-aminocarbonyl-pyrazin-5-yl)-6-azaindol-3-yl)-oxoacetyl]piperazine] | < 1000 nM | – |
| C[C@@H]1CN(C(=O)c2ccccc2)CCN1C(=O)C(=O)c1c[nH]c2nc(-c3nnn[nH]3)ccc12 [Example 56] | – | EC50 (Human immunodeficiency virus 1, HeLa-CD4/CCR5, 72 h, read-out: EC50 Group from Table 1, HeLa CD4 CCR5 cells, luciferase reporter virus, harvested 72 h after infection): 1000 to 5000 nM |
| CON(C)C(=O)c1ccnc2c(C(=O)C(=O)N3CCN(C(=O)c4ccccc4)C[C@H]3C)c[nH]c12 [Example 57] | – | EC50 [2]: < 1000 nM |

— patent publication US20050090522A1 (priority 2001, published 2005)
